32 compounds from patent publication US11407715B2, “Substituted indoline derivatives as dengue viral replication inhibitors” (JANSSEN PHARMACEUTICALS, INC., priority 2017, dated 2022) can be followed below.

The subject of one series is DENV-2 16681 strain. In words: microbe, parasite or virus in culture. The series is classed as cell-based, Dengue virus. Conditions: for EC50: DENV-2 16681 eGFP, Vero cells, MOI 0.5, 3 days; for SI: SI=CC50/EC50, DENV-2 antiviral assay.
A short description of a further series: in vitro. The conditions noted are these: African green monkey.
The subject of a further series is Vero cells. Conditions: African green monkey.
Where [1] appears, read: Dengue virus, DENV2, Vero, 72 h.

Where only a bound is given, the exact number is not on record here.

Take `COc1cc(NC(C(=O)N2CCc3ccc(OC(F)(F)F)cc32)c2ccc(Cl)cc2)cc(OCCC(C)C(=O)O)c1` (racemic) [Compound 1, 4-(3-((1-(4-chlorophenyl)-2-oxo-2-(6-(trifluoromethoxy)indolin-1-yl)ethyl)amino)-5-methoxyphenoxy)-2-methylbutanoic acid]: in the series with DENV-2 16681 strain (setting [1]), it took 0.5 nM to reach a half-maximal effect (EC50). Besides, the SI in the series on DENV-2 16681 strain amounted to 24400. Further, in the series “in vitro”, the CC50 came out at 11 µM.
In the series with DENV-2 16681 strain (setting [1]), `COc1cc(NC(C(=O)N2CCc3ccc(OC(F)(F)F)cc32)c2ccc(Cl)cc2)cc(OCCC(C)(C)C(=O)O)c1` (racemic) [Compound 2, 4-(3-((1-(4-chlorophenyl)-2-oxo-2-(6-(trifluoromethoxy)indolin-1-yl)ethyl)amino)-5-methoxyphenoxy)-2,2-dimethylbutanoic acid] registered an EC50 of 0.62 nM. Besides, in the series on DENV-2 16681 strain, the SI is given as 19200. The compound also returned a CC50 in the series “in vitro” of 12 µM.
Consider `COc1cc(NC(C(=O)N2CCc3ccc(OC(F)(F)F)cc32)c2ccc(Cl)cc2)cc(OCCC(C)C(=O)O)c1` (single isomer, unassigned) [Compound 1A], for which, in the series on DENV-2 16681 strain, the EC50 was 18 nM and the SI came to 523. The CC50 with Vero cells worked out at 9.6 µM.
In the series on DENV-2 16681 strain, `COc1cc(NC(C(=O)N2CCc3ccc(OC(F)(F)F)cc32)c2ccc(Cl)cc2)cc(OCCC(C)C(=O)O)c1` (single isomer, unassigned) [Compound 1B] gave an EC50 of 18 nM and an SI of 579. For the same compound, the CC50 in the series on Vero cells came to 10 µM.
On to `COc1cc(NC(C(=O)N2CCc3ccc(OC(F)(F)F)cc32)c2ccc(Cl)cc2)cc(OCCC(C)(C)C(=O)O)c1` (single isomer, unassigned) [Compound 2B], for which, in the series with DENV-2 16681 strain, the EC50 was determined as 19 nM and the SI is given as 565. Besides, the CC50 in the series with Vero cells worked out at 11 µM.
Regarding `COc1cc(NC(C(=O)N2CCc3ccc(OC(F)(F)F)cc32)c2ccc(Cl)cc2)cc(OCC(C)CC(=O)O)c1` (single isomer, unassigned) [Compound 4B], in the series on DENV-2 16681 strain, the midpoint of the response, the EC50, lay at 11 nM and the SI was 935. In the series with Vero cells, this compound gave a CC50 of 10 µM.
In the series on DENV-2 16681 strain, `COc1cc(NC(C(=O)N2CCc3ccc(OC(F)(F)F)cc32)c2ccc(Cl)cc2)cc(OCC2(CC(=O)O)CC2)c1` (single isomer, unassigned) [Compound 5B] registered an EC50 of 11 nM and an SI of 921. The same compound returned a CC50 with Vero cells of 10 µM.
Taken in the same sequence, the figures for `COc1cc(CCCCC(=O)O)cc(NC(C(=O)N2CCc3ccc(OC(F)(F)F)cc32)c2ccc(Cl)cc2)c1` (single isomer, unassigned) [Compound 14B] were 60 nM, 156 and 9.3 µM.
In the series on DENV-2 16681 strain, `COc1cc(NC(C(=O)N2CCc3ccc(OC(F)(F)F)cc32)c2ccc(Cl)cc2OC)cc(OCCC(C)C(=O)O)c1` (single isomer, unassigned) [Compound 17B] had an EC50 of 180 nM and an SI of 59. The compound also returned a CC50 in the series on Vero cells of 11 µM.
In the series on DENV-2 16681 strain, `COc1cc(NC(C(=O)N2CCc3cc(OC)c(C(F)(F)F)cc32)c2ccc(Cl)cc2)cc(OCCC(C)C(=O)O)c1` (single isomer, unassigned) [Compound 20B] came in with an EC50 of 180 nM and an SI of 69. In the series on Vero cells, this compound had a CC50 of 12 µM.
Turning to `COc1cc(NC(C(=O)N2CCc3cc(F)c(OC(F)(F)F)cc32)c2ccc(Cl)cc2)cc(OCC2CC2C(=O)O)c1` (single isomer, unassigned) [Compound 26B, (1 S*,2S*)-2-((3-((1-(4-chlorophenyl)-2-(5-fluoro-6-(trifluoromethoxy)indolin-1-yl)-2-oxoethyl)amino)-5-methoxyphenoxy)methyl)-cyclopropanecarboxylic Acid], in the series with DENV-2 16681 strain, the EC50 came to 0.94 nM and the SI is 10600. This compound also yielded a CC50 in the series with Vero cells of 12 µM.
In the series with DENV-2 16681 strain, `COc1cc(NC(C(=O)N2CCc3cc(F)c(OC(F)(F)F)cc32)c2ccc(Cl)cc2)cc(OC2CC(C(=O)O)C2)c1` (single isomer, unassigned) [Compound 27A] returned an EC50 of 0.41 nM and an SI of 14300. In the series on Vero cells, this compound came in with a CC50 of 11 µM.
In the series on DENV-2 16681 strain, `COc1cc(NC(C(=O)N2CCc3cc(OC)c(Cl)cc32)c2ccc(Cl)cc2)cc(OC2CC(C(=O)O)C2)c1` (single isomer, unassigned) [Compound 32A] returned an EC50 of 63 nM and an SI of 205. In the series with Vero cells, the CC50 was determined as 13 µM.
As to `COc1cc(NC2CC(C(=O)O)C2)cc(NC(C(=O)N2CCc3ccc(OC(F)(F)F)cc32)c2ccc(Cl)cc2)c1` (single isomer, unassigned) [Compound 33B], in the series on DENV-2 16681 strain, it took 7.9 nM to reach a half-maximal effect (EC50) and the SI was 1760. Moreover, the CC50 in the series with Vero cells was 14 µM.
In the series on DENV-2 16681 strain, `COc1cc(NC(C(=O)N2CCc3ccc(OC(F)(F)F)cc32)c2ccc(Cl)cc2)cc(OCC2CC2C(=O)O)c1` (stereo not drawn) [Compound 6BA] gave an EC50 of 12 nM and an SI of 703. Moreover, the CC50 with Vero cells turned out to be 8.7 µM.
Regarding `COc1cc(NC(C(=O)N2CCc3ccc(OC(F)(F)F)cc32)c2ccc(Cl)cc2)cc(OC2CC(C(=O)O)C2)c1` (stereo not drawn) [Compound 7A], in the series with DENV-2 16681 strain, the EC50 came to 9.1 nM and the SI is listed as 1130. Besides, in the series on Vero cells, the CC50 is 10 µM.
In the series with DENV-2 16681 strain, `COc1cc(NC(C(=O)N2CCc3ccc(OC(F)(F)F)cc32)c2ccc(Cl)cc2)cc(OC2CC(C(=O)O)C2)c1` (stereo not drawn) [Compound 8, (1s,3s)-3-(3-((1-(4-chlorophenyl)-2-oxo-2-(6-(trifluoromethoxy)indolin-1-yl)ethyl)amino)-5-methoxyphenoxy)cyclobutanecarboxylic acid] gave an EC50 of 0.048 nM and an SI above 126733. This compound came in with a CC50 in the series with Vero cells of 13 µM.
In the series on DENV-2 16681 strain, `COc1cc(NC(C(=O)N2CCc3ccc(OC(F)(F)F)cc32)c2ccc(Cl)cc2)cc(OC2CC(C(=O)O)C2)c1` (stereo not drawn) [Compound 8A] had an EC50 of 0.86 nM and an SI of 11600. In the series on Vero cells, this compound came in with a CC50 of 12 µM.
In the case of `COc1cc(NC(C(=O)N2CCc3ccc(OC(F)(F)F)cc32)c2ccc(Cl)cc2)cc(OCC2CC(C(=O)O)C2)c1` (stereo not drawn) [Compound 10A], in the series with DENV-2 16681 strain, the EC50 came out at 2.7 nM and the SI was found to be 3790. In the series on Vero cells, this compound came in with a CC50 of 10 µM.
Taken in the same sequence, the figures for `COc1cc(NC(C(=O)N2CCc3ccc(OC(F)(F)F)cc32)c2ccc(Cl)cc2)cc(OCC2CC(C(=O)O)C2)c1` (stereo not drawn) [Compound 11, (1r,3r)-3-((3-((1-(4-chlorophenyl)-2-oxo-2-(6-(trifluoromethoxy)indolin-1-yl)ethyl)amino)-5-methoxyphenoxy)methyl)cyclobutanecarboxylic acid] were 0.13 nM, 97100 and 12 µM.
On to `COc1cc(NC(C(=O)N2CCc3ccc(OC(F)(F)F)cc32)c2ccc(Cl)cc2)cc(OCC2CC(C(=O)O)C2)c1` (stereo not drawn) [Compound 11A], for which, in the series with DENV-2 16681 strain, the EC50 turned out to be 3.8 nM and the SI was found to be 2710. Besides, the CC50 with Vero cells worked out at 10 µM.
As for `COc1cc(NC(C(=O)N2CCc3ccc(OC(F)(F)F)cc32)c2ccc(Cl)cc2OC)cc(OCC2CC2C(=O)O)c1` (stereo not drawn) [Compound 19BA], in the series on DENV-2 16681 strain, the response was half-maximal at 16 nM (EC50) and the SI came out at 707. Further, the CC50 in the series on Vero cells came out at 11 µM.
Taken in the same sequence, the figures for `COc1cc(NC(C(=O)N2CCc3cc(OC)c(C(F)(F)F)cc32)c2ccc(Cl)cc2)cc(OCC2CC2C(=O)O)c1` (stereo not drawn) [Compound 22BA] were 15 nM, 786 and 12 µM.
In the series with DENV-2 16681 strain, `COc1cc(NC(C(=O)N2CCc3cc(OC)c(C(F)(F)F)cc32)c2ccc(Cl)cc2)cc(OCC2CC(C(=O)O)C2)c1` (stereo not drawn) [Compound 24A] gave an EC50 of 24 nM and an SI of 469. Moreover, the CC50 in the series on Vero cells worked out at 11 µM.
In the series on DENV-2 16681 strain, `COc1cc(NC(C(=O)N2CCc3cc(OC)c(C(F)(F)F)cc32)c2ccc(Cl)cc2)cc(OCC2CC(C(=O)O)C2)c1` (stereo not drawn) [Compound 25, (1r,3r)-3-((3-((1-(4-chlorophenyl)-2-(5-methoxy-6-(trifluoromethyl)indolin-1-yl)-2-oxoethyl)amino)-5-methoxyphenoxy)methyl)-cyclobutanecarboxylic Acid] gave an EC50 of 0.45 nM and an SI of 26800. In the series on Vero cells, the CC50 was determined as 12 µM.
For `COc1cc(NC(C(=O)N2CCc3cc(OC)c(C(F)(F)F)cc32)c2ccc(Cl)cc2)cc(OCC2CC(C(=O)O)C2)c1` (stereo not drawn) [Compound 25A], in the series on DENV-2 16681 strain, the EC50 came to 7.1 nM and the SI stood at 1640. In the series with Vero cells, this compound displayed a CC50 of 12 µM.
With `COc1cc(NC(C(=O)N2CCc3ccc(OC(F)(F)F)cc32)c2ccc(Cl)cc2)cc(OCC2(F)CC2C(=O)O)c1` (stereo not drawn) [Compound 28AA], in the series on DENV-2 16681 strain, the EC50 was found to be 330 nM and the SI worked out at 34. For the same compound, in the series with Vero cells, the CC50 is 11 µM.
In the series with DENV-2 16681 strain, `COc1cc(NC(C(=O)N2CCc3ccc(OC(F)(F)F)cc32)c2ccc(Cl)cc2)cc(OCC2(F)CC2C(=O)O)c1` (stereo not drawn) [Compound 28BA] displayed an EC50 of 17 nM and an SI of 574. Also, the CC50 with Vero cells was determined as 10 µM.
In the series on DENV-2 16681 strain, `COc1cc(NC(C(=O)N2CCc3ccc(OC(F)(F)F)cc32)c2ccc(Cl)cc2)cc(OCC2(F)CC2C(=O)O)c1` (stereo not drawn) [Compound 29AA] registered an EC50 of 61 nM and an SI of 151. The compound further had a CC50 in the series on Vero cells of 9.2 µM.
Taken in the same sequence, the figures for `COc1cc(NC(C(=O)N2CCc3ccc(OC(F)(F)F)cc32)c2ccc(Cl)cc2)cc(OCC2(F)CC2C(=O)O)c1` (stereo not drawn) [Compound 29BA] were 3.4 nM, 2890 and 9.8 µM.
In the series with DENV-2 16681 strain, `COc1cc(NC(C(=O)N2CCc3cc(F)c(OC(F)(F)F)cc32)c2ccc(Cl)cc2)cc(OCC2CC(C(=O)O)C2)c1` (stereo not drawn) [Compound 30B] gave an EC50 of 5.9 nM and an SI of 1800. This compound registered a CC50 in the series with Vero cells of 11 µM.
For the compound `COc1cc(NC(C(=O)N2CCc3cc(F)c(OC(F)(F)F)cc32)c2ccc(Cl)cc2)cc(OCC2CC(C(=O)O)C2)c1` (stereo not drawn) [Compound 31B], in the series with DENV-2 16681 strain, the midpoint of the response, the EC50, lay at 2.6 nM and the SI turned out to be 4400. The CC50 in the series with Vero cells amounted to 12 µM.
